Tests used:
GST-Bcl-2 protein = assay: fluorescence polarization assay, competitive binding against FAM-Bid peptide; conditions: GST-Bcl-2 40 nM, FAM-Bid 5 nM, 4 hours of incubation; read-out: competitive binding constant (Ki)
Procedure: A Bid BH3 peptide (amino acids: 79-99: […]) having 21 amino acids was synthesized and marked with 6-carboxyfluorescein N-succinimidyl ester (FAM) as fluorescent tag (FAM-Bid) at the N-terminal. The reaction system used in the competitive binding experiment was GST-Bcl-2 protein (40 nM) or Mcl-1 protein, which was dissolved in the reaction buffer (100 mM K3PO4, pH 7.5; 100 μg/ml bovine γ albumin; 0.02% sodium azide) together with FAM-Bid polypeptide (5 nM). In a 96-well plate, 100 μL of the reaction system was added into each well. Then 1 μL different concentration of 3-thiomorpholinyl-8-oxo-8H-acenaphtho[1,2-b]pyrrole-9-carbonitrile mother solution to be detected dissolved in DMSO was added thereinto until the final concentration met the experimental design requirements. Meanwhile, two control groups were established, one with the reaction system only contains Bcl-2 or Mcl-1 and FAM-Bid (equivalent to 0% inhibition rate), the other with the reaction system only containing FAM-Bid peptide. After 4 hours of incubation, the 96-well plate was detected by enzyme-labelled meter. The fluorescent polarization value (mP) was tested at […]. Ki value was deduced according to calculation formula. The competitive binding constant between the compound and Bcl-2 was 310 nM.

[1] = biological target: T1, interaction between Bcl-2 and Bax (Homo sapiens, UniProt P10415); assay: intracellular fluorescence polarization energy transfer (FRET), Hela cells transfected with Bcl-2-CFP and Bax-YFP; format: cell-based
T1 construct: expressed in transfected cells; host or cells: Hela cells
T1 sequence (P10415 whole entry): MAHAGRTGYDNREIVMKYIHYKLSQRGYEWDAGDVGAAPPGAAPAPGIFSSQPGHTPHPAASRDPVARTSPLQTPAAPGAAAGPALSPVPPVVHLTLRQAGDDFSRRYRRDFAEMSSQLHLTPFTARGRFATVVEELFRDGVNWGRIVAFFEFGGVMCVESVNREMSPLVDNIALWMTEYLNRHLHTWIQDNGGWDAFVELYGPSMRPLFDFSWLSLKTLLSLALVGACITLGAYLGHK
Procedure: 24 hours later (please refer to FIG. 2), the cells were washed with PBS for three times. The fluorescence value was detected by GENIOS fluorescence enzyme-labelled meter (TECAN, Swiss). In time-dependent experiment, the transfected cells were inoculated in a 6-well plate, after that, 40 μM of the compound was added thereinto. 3, 6 and 24 hours later (FIG. 3), the fluorescence intensities were detected by plate reader. As for the cell group in which only Bcl-2-CFP plasmid was transfected, the values at 475 nm emission wave length and 433 nm excitation wave length were recorded. As for the cell group in which only Bax-YFP plasmid was transfected, the values at 527 nm emission wave length and 505 nm excitation wave length were recorded. […] The ratio of fluorescence intensity at 527 nm and 475 nm emission wave lengths was FRET. The FRET for the control group in which the plasmid was solely transfected was set as 1.0. […] The cellular vitality was detected by MTT method.
Wherein the concentration and time meant that the detected compound interfered with the interaction between Bcl-2 and Bax at the concentration for the time period.

MCF-7 cells = assay: cytotoxicity depending on BAX/BAK, MTT, MCF-7 cells with or without BAX/BAK interfering plasmid; format: cell-based; conditions: MCF-7 cells, 48 hours, MTT
Procedure: 3 ng of BAX/BAK interfering plasmid was transfected into MCF-7 cells by using calcium phosphate coprecipitation method, 24 hours later, the cells were collected. The expressions after the BAX and BAK proteins interfered with RNA was detected by Western, and the cell groups without plasmid transfection were treated similarly and were set as the control group. The transfected cells were inoculated in a 96-well plate (1×10^5 cells/well), the control experiment of the cell group without plasmid transfection was carried out in parallel. The compound 3-thiomorpholinyl-8-oxo-8 H-acenaphtho[1,2-b]pyrrole-9-carbonitrile to be detected was added thereinto according to the concentration gradient designed before the experiment. 48 hours later, the cellular vitality was detected by MTT. The experimental results were shown in FIG. 6, Gossypol as nonspecific BH3 analogue was treated in parallel.

Mcl-1 [2] = assay: Western blotting, inhibition (downregulation) of Mcl-1 in tumor cells, Example 23; format: cell-based; conditions: for inhibition against Mcl-1: Western blotting, tumor cells
Procedure: (§1) The interest protein was detected by the corresponding antibody. The expression of the interest protein in the cells was detected by horseradish peroxidase-labeled secondary antibodies in combination with ECL coloration method. […] The concentration of the protein bands in the Western images were carried out semiquantitative analysis and normalization treatment with KODAK Gel Logic 1500 imaging system software.

Bcl-2 [3] = assay: Western blotting, inhibition (downregulation) of Bcl-2 in tumor cells, Example 23; format: cell-based; conditions: for inhibition against Bcl-2: Western blotting, tumor cells
Procedure: as §1

[4] = test system: hepatoma carcinoma cells H22; assay: in vivo tumor model, subcutaneous H22 tumor in Kunming mice; conditions: for tumor inhibition rate: experimental group 2: peritoneal injection of DMSO solution, 0.3 mg/kg BW every other day, 10 days, tumor volume on the fortieth day
Procedure: The Kunming mice (in China) were randomly divided into groups, with 10 mice in each group. The cultivated hepatoma carcinoma cells H22 were inoculated subcutaneously in the oxter of the mice with 200 μL/mouse. After bearing the cancer cells for five days, the subcutaneous tumor was formed. Then the compound 3-thiomorpholinyl-8-oxo-8H-acenaphtho[1,2-b]pyrrole-9-carbonitrile and γ-cyclodextrin inclusion compound thereof were given by peritoneal injection, and the compound to be detected included by γ-cyclodextrin was given by oral administration. The detection conditions comprise:
Blank control group: the mice were not treated in any manner after the bearing cancer;
Control group (1): the mice were given a peritoneal injection of DMSO solution every other day after the bearing cancer, 10 days in total;
Control group (2): the mice were given a peritoneal injection of cyclodextrin solution every other day after the bearing cancer, 10 days in total;
Experimental group (1): the mice were given a peritoneal injection of DMSO solution equivalent to 0.03 mg/kg BW compound every other day after the bearing cancer, 10 days in total;
Experimental group (2): the mice were given a peritoneal injection of DMSO solution equivalent to 0.3 mg/kg BW compound every other day after the bearing cancer, 10 days in total;
Experimental group (3): the mice were given a peritoneal injection of inclusion compound water solution equivalent to 0.3 mg/kg BW compound every other day after the bearing cancer, 10 days in total;
Experimental group (4): the mice were given an intragastric administration of inclusion compounds water solution equivalent to 0.3 mg/kg BW compound every other day after the bearing cancer, 10 days in total;
During the experimental period, the length-diameter (a) and short diameter (b), which was perpendicular to the length-diameter, of the tumor were detected twice every week. The gross tumor volume was determined according to the formula: ½ab^2. The survival time of the animal was observed. The tumor inhibition rate was calculated by the tumor volume on the fortieth day.

Bcl-2 [5] = assay: Western blotting, compounds compared with cyclodextrin inclusion compounds and complexes, Example 24; format: cell-based; conditions: Table 9; 10 μM or equivalent of inclusion compound, 24 hours
Procedure: (§2) The cells were inoculated in a 6-well plate (2×10^5 cells/well). In the compound group, the compound 3-thiomorpholinyl-8-oxo-8H-acenaphtho[1,2-b]pyrrole-9-carbonitrile was dissolved into DMSO until the final concentration reached 10 μM. In the inclusion group, γ-cyclodextrin inclusion, which had been dissolved into water and was equivalent to 10 μM of the compound, was added thereinto. 24 hours later, the cells were washed with PBS for three times, then the cell sample was collected and cracked with 1×10^6/50 μl cell lysis solution (62.5 mM Tris-HCL pH 6.8; 2% SDS; 10% glycerol; 50 mM DTT; 0.01% bromphenol blue) at low temperature, then the solution was centrifuged and the protein supernatant was collected. The sample was boiled at 100° C. for 5 minutes and then was separated by electrophoresis on 12% SDS-PAGE and transferred. The interest protein was detected by the corresponding antibody. The expression of the interest protein in the cells was detected by horseradish peroxidase-labeled secondary antibodies in combination with ECL coloration method. […] The concentration of the protein bands in the Western figures were carried out semiquantitative analysis and normalization treatment with KODAK Gel Logic 1500 imaging system software.

Mcl-1 [6] = assay: as above; format: cell-based; conditions: Table 8; 10 μM or equivalent of inclusion compound, 24 hours
Procedure: as §2

## N#CC1=C2C(=NC1=O)c1cccc3c(N4CCSCC4)ccc2c13 [3-thiomorpholinyl-8-oxo-8H-acenaphtho[1,2-b]pyrrole-9-carbonitrile]
GST-Bcl-2 protein
  Ki: 310 nM
[1]; goes with the concentration of E11
  Time for which the compound interfered with the interaction between Bcl-2 and Bax: 3 h
[1]; goes with the time of E12
  Concentration at which the compound interfered with the interaction between Bcl-2 and Bax: 2 µM
MCF-7 cells
  dependence of cytotoxicity on BAX/BAK: cytotoxicity of absolute dependence on BAX/BAK
Mcl-1 [2]
  inhibition against Mcl-1: had the inhibition against these two proteins
Bcl-2 [3]
  inhibition against Bcl-2: had the inhibition against these two proteins
[4]; compound group, control group 28±2.1 days
  average life (survival time) of the animal: 33 ± 3.1 days
[4]
  tumor inhibition rate: 22.3%

## N#CC1=C2C(=NC1=O)c1ccc(OC3CCOCC3)c3cccc2c13 [4-(tetrahydro-2H-pyranyl-4-oxo)-8-oxo-8H-acenaphtho[1,2-b]pyrrole-9-carbonitrile]
Mcl-1 [2]; 6 hours
  downregulation of Mcl-1 protein, semiquantitative analysis (band concentration, control = 1): 0.99
Mcl-1 [2]; 12 hours
  downregulation of Mcl-1 protein, semiquantitative analysis (band concentration, control = 1): 0.99
Mcl-1 [2]; 18 hours
  downregulation of Mcl-1 protein, semiquantitative analysis (band concentration, control = 1): 0.61
Mcl-1 [2]; 24 hours
  downregulation of Mcl-1 protein, semiquantitative analysis (band concentration, control = 1): 0.29
Mcl-1 [2]
  inhibition against Mcl-1: had the inhibition against Bcl-2 and Mcl-1 proteins
Bcl-2 [3]; 2 hours
  downregulation of Bcl-2 protein, semiquantitative analysis (band concentration, control = 1): 0.71
Bcl-2 [3]; 6 hours
  downregulation of Bcl-2 protein, semiquantitative analysis (band concentration, control = 1): 0.38
Bcl-2 [3]
  inhibition against Bcl-2: had the inhibition against Bcl-2 and Mcl-1 proteins
Bcl-2 [5]
  downregulation of Bcl-2 protein, semiquantitative analysis (band concentration, control = 1): 0.77
Mcl-1 [6]
  downregulation of Mcl-1 protein, semiquantitative analysis (band concentration, control = 1): 0.80
[4]
  tumor inhibition rate: about 40%
